Laboratory results as given in US11065234B2, “Estrogen receptor modulators” (Recurium IP Holdings, LLC, priority 2016, dated 2021).

Experiments:
[1] = target: T1, ERα (Homo sapiens, UniProt P03372); assay: ER Degradation Determination by Western Blot; type: cell-based; conditions: MCF-7 cells, 10 μM, 18-24 hours
T1 construct: endogenous in cells; host or cells: MCF-7
T1 sequence (P03372 1-595): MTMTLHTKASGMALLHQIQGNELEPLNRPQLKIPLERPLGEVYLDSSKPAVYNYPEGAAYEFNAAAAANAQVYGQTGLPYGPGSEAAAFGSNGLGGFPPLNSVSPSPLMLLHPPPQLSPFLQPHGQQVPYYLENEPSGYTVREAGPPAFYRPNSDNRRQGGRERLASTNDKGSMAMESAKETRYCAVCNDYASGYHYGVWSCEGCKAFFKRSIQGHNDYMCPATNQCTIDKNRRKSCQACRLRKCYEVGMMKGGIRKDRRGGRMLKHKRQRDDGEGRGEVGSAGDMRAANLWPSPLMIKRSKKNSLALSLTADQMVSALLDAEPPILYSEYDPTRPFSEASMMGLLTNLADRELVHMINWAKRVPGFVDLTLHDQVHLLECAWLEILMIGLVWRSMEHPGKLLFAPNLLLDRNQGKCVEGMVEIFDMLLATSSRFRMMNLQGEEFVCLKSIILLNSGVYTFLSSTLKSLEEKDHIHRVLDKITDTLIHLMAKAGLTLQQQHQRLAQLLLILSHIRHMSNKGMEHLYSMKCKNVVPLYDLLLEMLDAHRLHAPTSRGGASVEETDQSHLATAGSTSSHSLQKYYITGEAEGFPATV
Protocol: ER Degradation Determination by Western Blot
MCF-7 cells are plated at 0.3 million cells/mL (3 mL/well) in 6-well plates in experiment media and incubated at 37° C., 5% CO2 for […]. Next day, 10× solution of compounds are made in DMSO and added the solution to the cells to achieve a final concentration of 10 μM. A DMSO control is included to enable a determination of the relative efficacy of test compounds. Fulvestrant is used as a positive control for ER-alpha degradation, and 4-OH tamoxifen as a control for receptor stabilization. After incubating cells with compounds for 18-24 hours, cell lysates are prepared (2× Cell lysis buffer:100 mM Tris, pH 8, 300 mM NaCl, 2% NP40, 1% Na deoxycholate, 0.04% SDS, 2 mM EDTA) and mixed thoroughly and incubated on ice. The protein concentration is quantified using BCA kit. […] The gel was then transferred onto a nitrocellulose membrane. […] GAPDH protein was used as an internal control.

[2] = test system: MCF7; assay: Breast Cancer Cell Proliferation Assay (MCF-7); type: cell-based; conditions: Homo sapiens, 120 h; MCF7 cells, 5 days of compound exposure, Cell Titer-Glo
Protocol: Breast Cancer Cell Proliferation Assay (MCF-7)
MCF7 was expanded and maintained in the medium (Phenol red free DMEM/F12 (Hyclone SH30272.01) NEAA (Gibco11140-050) Na-pyruvate (Gibco 11360-070) and Re-stripped Charcoal stripped FBS (Gemini 100-119)). The cells were adjusted to a concentration of 3,000 cells per mL in the above media, and the cells were incubated (37° C., 5% CO2). The following day a 10 point, serial dilution of compounds was added to the cells at a final concentration ranging from 10-0.000005 μM for test compounds (17β-estradiol was used as a control). Additional cells were plated in 30 wells to serve as the day 1 (pretreatment) comparison. After 5 days of compound exposure, Cell Titer-Glo reagent was added to the cells and the relative luminescence units (RLUs) of each well was determined. Cell Titer-Glo was also added to 32 μL of medium without cells to obtain a background value. The plates were allowed to incubate at room temperature for 10 minutes to stabilize luminescent signal and the luminescence signal was recorded with EnSpire. The relative increase in cell number of each sample is determined as follows: (RLU sample-RLU background/RLU estrogen only treated cells-RLU background)×100=% inhibition.

[3] = Pharmacokinetic Determination (Rat PK); type: in vivo; conditions: plasma, female SD rats
Protocol: Example D Pharmacokinetic Determination
Grouping female SD rats weighing 200-300 g randomly to two groups; one group was administered with test compound at a dose of 3.0 mg/kg by intravenous injection, the other group was administered with test compound at a dose of 10.0 mg/kg by oral. The formulation for IV groups is DMSO/PEG400/150 mM glycine (pH 9) (5/10/85) and the formulation for PO groups is PEG400/PVP/Tween 80/0.5% CMC in water (9/0.5/0.5/90). After administering, blood samples of intravenous injection group were collected at time points of predose, 0.0833, 0.25, 0.5, 1, 2, 4, 8, 12 and 24 h; blood samples of oral group were collected at time points of predose, 0.25, 0.5, 1, 2, 4, 8, 12, and 24 h. Standard curve was plotted based on concentrations of the samples in a suitable range, the concentrations of test compounds in plasma samples were determined by using LC-MS/MS. Pharmacokinetic parameters were calculated according to drug concentration-time curve using a noncompartmental method by WinNonLin (Phoenix™, version 6.1) or other similar software.

| IC50 [2] | Structure (SMILES) | also measured |
| --- | --- | --- |
| ≤ 25 nM | C[C@@H]1Cc2c([nH]c3ccc(O)cc23)[C@@H](c2c(F)cc(/C=C/C(=O)O)cc2F)N1CC(C)(C)F (single isomer, unassigned) [Example 13B] | ERα % degradation [1]: B (B = ERα % degradation <80%) |
| ≤ 25 nM | C[C@@H]1Cc2c([nH]c3ccccc23)[C@@H](c2c(F)cc(/C=C/C(=O)O)cc2F)N1CC1(C)COC1 [Example 18A, (E)-3-(3,5-Difluoro-4-((1R,3R)-3-methyl-2-((3-methyloxetan-3-yl)methyl)-2,3,4,9-tetrahydro-1H-pyrido[3,4-b]indol-1-yl)phenyl)acrylic acid] | – |
| ≤ 25 nM | O=C(O)/C=C/c1cc(F)c(C2c3[nH]c4ccccc4c3C[C@@H](C(F)F)N2C2CCOC2)c(F)c1 (stereo partly drawn) [Example 19A, (E)-3-(4-((3S)-3-(Difluoromethyl)-2-(tetrahydrofuran-3-yl)-2,3,4,9-tetrahydro-1H-pyrido[3,4-b]indol-1-yl)-3,5-difluorophenyl)acrylic acid] | – |
| ≤ 25 nM | CC[C@H]1Cc2c([nH]c3ccccc23)[C@H](c2c(F)cc(/C=C/C(=O)O)cc2F)N1C12CC(C1)C2 (single isomer, unassigned) [Example 25B] | – |
| 25 to 250 nM | C[C@H]1Cc2c([nH]c3ccc(O)cc23)[C@H](c2c(F)cc(/C=C/C(=O)O)cc2F)N1CC(C)(C)F (single isomer, unassigned) [Example 13A] | – |
| ≤ 25 nM | [2H][C@@]1(c2c(F)cc(/C=C/C(=O)O)cc2F)c2[nH]c3ccccc3c2C[C@@H](C)N1C12CC(C1)C2 [Example 11D, (E)-3-(4-((1R,3R)-2-(Bicyclo[1.1.1]pentan-1-yl)-3-methyl-2,3,4,9-tetrahydro-1H-pyrido[3,4-b]indol-1-yl-1-d)-3,5-difluorophenyl)acrylic acid] | – |
| ≥ 250 nM | C[C@@H]1Cc2c(n(C)c3ccccc23)[C@@H](c2c(F)cc(/C=C/C(=O)O)cc2F)N1C12CC(C1)C2 [Example 26A, (E)-3-(4-((1R,3R)-2-(bicyclo[1.1.1]pentan-1-yl)-3,9-dimethyl-2,3,4,9-tetrahydro-1H-pyrido[3,4-b]indol-1-yl)-3,5-difluorophenyl)acrylic acid] | – |
| ≤ 25 nM | CC/C(=C(/c1ccc(/C=C/C(=O)O)cc1)c1ccc2[nH]ncc2c1)c1ccc(F)cc1Cl [ARN810, reference compound] | AUC(0-inf) ([3]; IV, 3.0 mg/kg): 5.9 µM·h; clearance ([3]; IV, 3.0 mg/kg): 19 mL/min/kg; half-life ([3]; IV, 3.0 mg/kg): 4.7 h; Vd ([3]; IV, 3.0 mg/kg, read-out: Vdss): 1.2 L/kg; bioavailability ([3]; PO 10.0 mg/kg vs IV 3.0 mg/kg): 117%; AUC(0-inf) ([3]; PO, 10.0 mg/kg): 23 µM·h; Cmax ([3]; PO, 10.0 mg/kg): 6.7 µM; Tmax ([3]; PO, 10.0 mg/kg): 1 h; half-life ([3]; PO, 10.0 mg/kg): 6.9 h |
| 25 to 250 nM | CCC1Cc2c([nH]c3ccccc23)C(c2c(F)cc(/C=C/C(=O)O)cc2F)N1CC12CC(C1)C2 (stereo not shown) [Example 24, (E)-3-(4-(2-(Bicyclo[1.1.1]pentan-1-ylmethyl)-3-ethyl-2,3,4,9-tetrahydro-1H-pyrido[3,4-b]indol-1-yl)-3,5-difluorophenyl)acrylic acid] | – |
| ≥ 250 nM | CC[C@@H]1Cc2c([nH]c3ccccc23)[C@@H](c2c(F)cc(/C=C/C(=O)O)cc2F)N1C12CC(C1)C2 (single isomer, unassigned) [Example 25A] | – |

The next lines start with the molecule.

| Structure (SMILES) | IC50 [2] | also measured |
| --- | --- | --- |
| CC1(C)Cc2c([nH]c3ccccc23)C(c2c(F)cc(/C=C/C(=O)O)cc2F)N1CC12CC(C1)C2 (stereo not shown) [Example 22, (E)-3-(4-(2-(Bicyclo[1.1.1]pentan-1-ylmethyl)-3,3-dimethyl-2,3,4,9-tetrahydro-1H-pyrido[3,4-b]indol-1-yl)-3,5-difluorophenyl)acrylic acid] | 25 to 250 nM | – |
| CC[C@@H]1Cc2c([nH]c3ccccc23)[C@@H](c2c(F)cc(/C=C/C(=O)O)cc2F)N1[C@@H]1CCOC1 (single isomer, unassigned) [Example 23B] | 25 to 250 nM | – |
| C[C@]12CC[C@@H]3c4ccc(O)cc4C[C@@H](CCCCCCCCC[S+]([O-])CCCC(F)(F)C(F)(F)F)[C@H]3[C@@H]1CC[C@@H]2O (stereo partly shown) [fulvestrant, reference compound] | ≤ 25 nM | ERα % degradation [1]: A (A = ERα % degradation ≥80%) |
| CC[C@@H]1Cc2c([nH]c3ccccc23)[C@@H](c2c(F)cc(/C=C/C(=O)O)cc2F)N1[C@H]1CCOC1 (single isomer, unassigned) [Example 23A] | ≤ 25 nM | – |
| C[C@@H]1Cc2c([nH]c3ccccc23)[C@@H](c2c(F)cc(/C=C/C(=O)O)cc2F)N1[C@@H]1CCOC1 [Example 8B, (E)-3-(3,5-Difluoro-4-((1R,3R)-3-methyl-2-((R)-tetrahydrofuran-3-yl)-2,3,4,9-tetrahydro-1H-pyrido[3,4-b]indol-1-yl)phenyl)acrylic acid] | 25 to 250 nM | ERα % degradation [1]: B (B = ERα % degradation <80%) |
| C[C@@H]1Cc2c([nH]c3ccccc23)[C@@H](c2c(F)cc(/C=C/C(=O)O)cc2F)N1C1CC(F)(F)C1 (single isomer, unassigned) [Example 9A] | 25 to 250 nM | ERα % degradation [1]: A (A = ERα % degradation ≥80%) |
| C[C@@H]1Cc2c([nH]c3cc(O)ccc23)[C@@H](c2c(F)cc(/C=C/C(=O)O)cc2F)N1CC(C)(C)F [Example 15A, (E)-3-(3,5-Difluoro-4-((1R,3R)-2-(2-fluoro-2-methylpropyl)-7-hydroxy-3-methyl-2,3,4,9-tetrahydro-1H-pyrido[3,4-b]indol-1-yl)phenyl)acrylic acid] | ≤ 25 nM | – |
| C[C@@H]1Cc2c([nH]c3ccccc23)[C@@H](c2c(F)cc(/C=C/C(=O)O)cc2F)N1CC1COC1 [Example 17A] | 25 to 250 nM | – |
| C[C@@H]1Cc2c([nH]c3ccccc23)[C@H](c2c(F)cc(/C=C/C(=O)O)cc2F)N1C12CC(C1)C2 [Example 11C, (E)-3-(4-((1S,3R)-2-(Bicyclo[1.1.1]pentan-1-yl)-3-methyl-2,3,4,9-tetrahydro-1H-pyrido[3,4-b]indol-1-yl)-3,5-difluorophenyl)acrylic acid] | ≥ 250 nM | – |
| C[C@@H]1Cc2c([nH]c3ccccc23)[C@@H](c2c(F)cc(/C=C/C(=O)O)cc2F)N1CC1(F)COC1 [Example 16A, (E)-3-(3,5-Difluoro-4-((1R,3R)-2-((3-fluorooxetan-3-yl)methyl)-3-methyl-2,3,4,9-tetrahydro-1H-pyrido[3,4-b]indol-1-yl)phenyl)acrylic acid] | ≤ 25 nM | – |
| C[C@@H]1Cc2c([nH]c3ccccc23)[C@@H](c2c(F)cc(/C=C/C(=O)O)cc2F)N1C1CCOCC1 [Example 6A, (E)-3-(3,5-Difluoro-4-((1R,3R)-3-methyl-2-(tetrahydro-2H-pyran-4-yl)-2,3,4,9-tetrahydro-1H-pyrido[3,4-b]indol-1-yl)phenyl)acrylic acid] | – | ERα % degradation [1]: B (B = ERα % degradation <80%) |
